According to patent US9816075B2, “Compounds with modifying activity enhanced under hypoxic conditions” (Board of Regents, The University of Texas System, priority 2005, dated 2017):
Marks after values point to notes of the source that are not given here.

How the values were obtained:
supercoiled pUC18 DNA = assay: Modification (strand breaks) of supercoiled plasmid DNA, gel electrophoresis; assay type: biochemical; settings: 12.8 μM, anaerobic, about one hour
Procedure: Referring now to FIG. 6, supercoiled DNA (0.154 mM base pairs) was modified by a diastereomeric mixture of the P^4+ complex in the presence and absence of a reducing agent. Lane M was the marker lane. Lane 1 was a DNA control without a reducing agent. Lane 2 included DNA without P^4+ under aerobic conditions (e.g., in the presence of oxygen or O2) with GSH, Lane 2′ included DNA with GSH (0.513 mM) without P^4+ under anaerobic conditions (e.g., hypoxia). Lanes 3, 4 and 5 were representative of modifications under aerobic (O2) conditions and lanes 2′, 3′, 4′ and 5′ were representative of modifications under anaerobic (hypoxia or absent O2) conditions. […]
Modification reactions were carried out in 0.5 mL Eppendorf tubes with 2 μL of a supercoiled pUC18 DNA (1 μg/1 μL) in a total volume of 20 μL using a 5 mM sodium phosphate buffer (pH 7). […] DNA was then dried for about 30 minutes and resuspended in about 40 μL of a storage buffer (e.g., 40 mM Tris-Cl, 1 mM EDTA at pH 8.0) with 65 μL of deionized water and 12 μL of a loading buffer (e.g., 30% glycerol in water with 0.1% w/v bromophenol blue), Each reaction was then evaluated by standard gel electrophoresis methods (e.g., loaded on 1% agarose gel stained with ethidium bromide and electrophoresed at about 80 volts for about 90 minutes using a Tris-acetate-EDTA buffer at pH 8.0). […]

[1] = tested on: H358, a bronchioalveolar non-small cell lung cancer cell line; assay: MTT drug sensitivity assay; assay type: cell-based; settings: 96 hours incubation; concentration that reduced formazan formation by 50%
Procedure: For cytotoxicity of suitable compounds a standard MTT drug sensitivity assay was performed on cancer cells, including H358, a bronchioalveolar non-small cell lung cancer cell line. Cell density in an aliquot of cells growing in log phase was determined by counting trypan blue excluding cells in a hemocytometer and 20,000 cells were plated into each well of 96-well flat-bottomed microliter plates.

[2] = Animal toxicity screen / MTD by intraperitoneal injection; settings: for MTD: intraperitoneal, mice, a = maximum dose due to poor solubility, b = acutely toxic with a single animal at 0.2 mg in 200 μL (about 6.0 mg/kg); for survival in toxicity screen: 0.2 mg in 200 μL 10 mM Tris buffer pH 7.5, intraperitoneal
Procedure: Animal toxicity screens were performed by intraperitoneal injection of suitable compounds in C57BL/6NTac mice (each with an approximate weight of 30 g). For each animal, 0.2 mg of each compound in 200 μL 10 mM Tris buffer, pH 7.5 was used. […] These were further examined by injecting at least three mice with 200 μL of a freshly prepared aqueous solution of each compound at concentrations of 0.5 mg/mL, 2 mg/mL, 5 mg/mL, 10 mg/mL, 25 mg/mL and 50 mg/mL to determine MTD values.

[3] = Cyclic voltammetry / reduction potentials; assay type: physicochemical; settings: cyclic voltammetry in aqueous solution, versus normal hydrogen electrode
Excerpt: This is depicted in FIG. 4 in which compounds having a tatpp or tatpq bridging ligand are provided as examples. Preferred bridging ligands have modest potentials in order for them to be accessible in a cellular milieu. […] For TJ-7p of FIG. 2, a compound in which tatpq is the bridging ligand, the first two reductions were at 70 mV and −80 mV versus the normal hydrogen electrode. These potentials are modest and easily accessible in a cellular milieu.
The reduction potential for compounds is such that these compounds are accessible to one or more reducing agents, especially in biologic conditions. For example, the bridging ligand, tatpp, when bound by two ruthenium ions in P^4+, has a reduction potential […] of about −0.22 V versus Ag/AgCl in acetonitrile. An alternate charged form of P^4+, P^3+, has an E1/2 of about −0.71 V versus Ag/AgCl in acetonitrile. These E1/2 values of the complexes make them accessible to one or more suitable reducing agents in biologic conditions.

calf thymus Topo I = assay: Topoisomerase I relaxation of supercoiled DNA; assay type: biochemical; settings: 0.62-3.08 μM
Procedure: FIGS. 19 and 20 illustrate the ability of suitable compounds to modify Topo I and Topo II. […] For FIG. 19, lane M was the marker lane containing forms I, II and III of a DNA. For all other lanes, the DNA was supercoiled pUC18 at 30.8 μM per reaction. Lane 1 was, the DNA used was pUC18 at 30.8 μM base pairs per reaction, without compound or inhibitor. Lane 2 was DNA with Tope I and no compound. Lane 3 was DNA with inhibitor, CPT. Lane 4-6 included varying concentrations of P^4+ (3.08 μM, 1.54 μM and 0.62 μM, respectively). Lane 7-9 included varying concentrations of Q^4+ (3.08 μM, 1.54 μM and 0.62 μM, respectively).
Reaction conditions for FIGS. 19 and 20 included the addition of DNA and 5 units of calf thymus Topo I in the presence or absence of either a known inhibitor (CPT), P^4+ or Q^4+. Both P^4+ and Q^4+ were examined at varying concentrations, 0.62 μM-3.08 μM. Samples were incubated at 37 degrees Centigrade in an assay buffer (e.g., 10 mM Tri-HCl at pH 7.9, 150 mM NaCl, 1 mM EDTA, 0.1% BSA, 0.1 mM spermidine, and 5% glycerol) for about 30 minutes to allow for appropriate cleavage and religation. Relaxed intermediates were then trapped by adding 5 μL of a stopping buffer (e.g., 5% SDS, 0.05% bromophenol blue and 30% glycerol). […]

Topo II = assay: Topoisomerase II activity on supercoiled DNA; assay type: biochemical; settings: 0.46-2.31 μM
Procedure: As shown, M was the marker lane containing forms I, II and III of a DNA. For all other lanes, the DNA was supercoiled pUC18 at 30.8 μM base pairs per reaction. Lane 1 was DNA without compound or inhibitor. Lane 2 was DNA with Topo H and no compound. Lane 3 was DNA with inhibitor, m-AMSA. Lanes 4-6 included varying concentrations of P^4+ (2.31 μM, 1.15 μM and 0.46 μM, respectively). Lanes 7-9 included varying concentrations of Q^4+ (2.31 μM, 1.15 μM and 0.46 μM, respectively).
For conditions using Topo II, reactions were generally performed as described for Topo I, except that 23.1 μM of DNA was used per reaction along with either the inhibitor (m-AMSA) or varying concentrations of P^4+ or Q^4+ (0.46 to 2.31 μM) in a total volume of 20 μL. The assay buffer was altered for improved Topo II activity (using 10 mM Tris-HCl at pH 7.9, 50 mM NaCl, 50 mM KCl, 5 mM MgCl2, 0.1 mM EDTA, 0.15 mg mL BSA, and 1 mM ATP) as was the running buffer (using 100 mM Tris-borate, pH 8.3, 2 mM BDTA).

For Iron(II)-Bleomycin [Fe-BLM], the “DNA modification in the absence of oxygen, FIG. 7” value (supercoiled pUC18 DNA) was “unable to modify or break DNA in the absence of oxygen”.

For [Ru2(bpy)2(tpphz)(C2O4)2], the IC50 [1] was 100 ± 10 µM and the MTD [2] was >15^a mg/kg.

For [Ru2(bpy)2(tpphz)(CH3CN)4]^4+, the IC50 [1] was 21 ± 2 µM and the MTD [2] was <6^b mg/kg.

For [Ru2(bpy)2(tpphz)(CO)2(Cl)2]^4+, the IC50 [1] was 8 ± 1 µM and the MTD [2] was <6^b mg/kg.

With [Ru2(bpy)2(tpphz)(CO)4]^4+ the MTD [2] was >6^a mg/kg.

For “[Ru2(phen)4tatpp]^4+ [[Ru2(phen)4(tatpp)]^4+]”, the IC50 [1] was 8 ± 1 µM, the first reduction potential [3] was 170 mV and the second reduction potential [3] was −180 mV. The “survival in toxicity screen” value [2] was “survived”.

Substance “[Ru2(phen)4tatpq]^4+ [[Ru2(phen)4(tatpq)]^4+]” has an IC50 [1] of 1 ± 0.1 µM, a first reduction potential [3] of 70 mV and a second reduction potential [3] of −80 mV. The “Topo I inhibition compared with camptothecin (CPT)” value (calf thymus Topo I) was “better than that of the known inhibitor, camptothecin”, the “Topo I inhibition, FIG. 19” value (calf thymus Topo I; 37 degrees Centigrade, about 30 minutes) was “inhibited Topo I and its relaxation of supercoiled DNA” and the “Topo II inhibition compared with amsacrine (m-AMSA)” value (Topo II) was “better than that of the known inhibitor, amsacrine”. For the same substance, the “Topo II inhibition, FIG. 20” value (Topo II) was “inhibited Topo II and its activity on supercoiled DNA” and the “survival in toxicity screen” value [2] was “survived”.
